Measurements reported in DBAASP.
Values after ≈ are worked out from the molar mass of the structure shown.

Experiments:
Assay in all cases: ≥ marks a high value that may be exact or a test limit, other limits are often not marked, values filed in µg/mL are converted to µM
Bacillus subtilis = system: Bacillus subtilis
Candida albicans = system: Candida albicans
Escherichia coli = system: Escherichia coli
Staphylococcus aureus = system: Staphylococcus aureus
[1] = system: Escherichia coli ATCC 25922
Klebsiella pneumoniae = system: Klebsiella pneumoniae
[2] = system: Staphylococcus aureus ATCC 25923

CC(C)C[C@H](NC(=O)[C@H](C)NC(=O)[C@H](CC(C)C)NC(=O)[C@H](CC(N)=O)NC(=O)[C@H](CCCCN)NC(=O)[C@H](Cc1ccccc1)NC(=O)[C@@H](NC(=O)[C@H](CC(=O)O)NC(=O)[C@H](CC(C)C)NC(=O)[C@H](Cc1ccccc1)NC(=O)CN)[C@@H](C)O)C(=O)N[C@@H](CC(N)=O)C(=O)N[C@@H](C)C(=O)N[C@@H](C)C(=O)N[C@@H](CCCCN)C(=O)N[C@@H](CO)C(=O)N[C@@H](C)C(=O)NCC(=O)N[C@H](C(=O)N[C@@H](CO)C(=O)N[C@H](C(=O)N[C@@H](CC(C)C)C(=O)N[C@@H](CC(N)=O)C(=O)N[C@@H](CO)C(=O)N[C@@H](CC(C)C)C(=O)N[C@@H](CO)C(=O)N[C@H]1CSSC[C@@H](C(=O)O)NC(=O)[C@H]([C@@H](C)O)NC(=O)[C@H](CCCCN)NC(=O)[C@H](Cc2ccccc2)NC(=O)[C@H](CC(C)C)NC(=O)[C@H](CCCCN)NC1=O)C(C)C)C(C)C [GFLDTFKNLALNAAKSAGVSVLNSLSCKLFKTC]
MIC (Bacillus subtilis): 2.36 µM (≈ 8.16 µg/mL)
MIC (Candida albicans): 1.18 µM (≈ 4.08 µg/mL)
MIC (Escherichia coli): 4.71 µM (≈ 16.3 µg/mL)
MIC (Staphylococcus aureus): 2.36 µM (≈ 8.16 µg/mL)

CC[C@H](C)[C@H](NC(=O)[C@H](CC(C)C)NC(=O)[C@H](Cc1cnc[nH]1)NC(=O)[C@@H](NC(=O)[C@@H](NC(=O)[C@H](C)NC(=O)CNC(=O)[C@H](CC(C)C)NC(=O)[C@H](C)NC(=O)[C@H](C)NC(=O)[C@H](CCCCN)NC(=O)CNC(=O)[C@@H](NC(=O)CNC(=O)[C@H](CCCCN)NC(=O)[C@H](CC(C)C)NC(=O)[C@@H](NC(=O)[C@H](CC(=O)O)NC(=O)[C@H](CC(C)C)NC(=O)[C@H](Cc1ccccc1)NC(=O)CN)C(C)C)C(C)C)C(C)C)[C@@H](C)O)C(=O)N[C@@H](CC(N)=O)C(=O)N[C@@H](CCC(N)=O)C(=O)NCC(=O)N[C@@H](CCC(=O)O)C(=O)N[C@@H](CCC(N)=O)C(N)=O [GFLDVLKGVGKAALGAVTHLINQGEQ]
MIC (Candida albicans): 55.1 µM (≈ 145 µg/mL)
MIC (Escherichia coli): 27.5 µM (≈ 72.5 µg/mL)
MIC (Staphylococcus aureus): 27.5 µM (≈ 72.5 µg/mL)

CC[C@H](C)[C@H](NC(=O)[C@H](CC(C)C)NC(=O)[C@H](Cc1cnc[nH]1)NC(=O)[C@@H](NC(=O)[C@@H](NC(=O)[C@H](C)NC(=O)CNC(=O)[C@H](CC(C)C)NC(=O)[C@H](C)NC(=O)[C@H](C)NC(=O)[C@H](CCCCN)NC(=O)CNC(=O)[C@@H](NC(=O)CNC(=O)[C@H](CCCCN)NC(=O)[C@@H](NC(=O)[C@@H](NC(=O)[C@H](CC(=O)O)NC(=O)[C@H](CC(C)C)NC(=O)[C@H](Cc1ccccc1)NC(=O)CN)C(C)C)C(C)C)C(C)C)C(C)C)[C@@H](C)O)C(=O)N[C@@H](CC(N)=O)C(=O)N[C@@H](CCC(N)=O)C(=O)NCC(=O)N[C@@H](CCC(=O)O)C(=O)N[C@@H](CCC(N)=O)C(N)=O [GFLDVVKGVGKAALGAVTHLINQGEQ]
MIC (Candida albicans): 222 µM (≈ 582 µg/mL)
MIC (Escherichia coli): 55.5 µM (≈ 145 µg/mL)
MIC (Staphylococcus aureus): 111 µM (≈ 291 µg/mL)

CC[C@H](C)[C@H](NC(=O)CNC(=O)[C@H](CC(N)=O)NC(=O)[C@@H](NC(=O)[C@H](C)NC(=O)[C@H](CC(N)=O)NC(=O)[C@H](CC(C)C)NC(=O)[C@H](C)NC(=O)[C@H](C)NC(=O)[C@H](CCCN=C(N)N)NC(=O)CNC(=O)[C@H](C)NC(=O)[C@H](C)NC(=O)[C@H](C)NC(=O)[C@H](C)NC(=O)[C@H](CCSC)NC(=O)[C@H](CC(=O)O)NC(=O)[C@H](CCCCN)NC(=O)[C@@H](NC(=O)[C@H](CO)NC(=O)[C@H](CO)NC(=O)[C@H](CCCN=C(N)N)NC(=O)[C@H](CC(C)C)NC(=O)[C@@H](N)CO)[C@@H](C)CC)C(C)C)C(=O)N[C@H](C(=O)N[C@@H](CC(N)=O)C(=O)N1CCC[C@H]1C(N)=O)C(C)C [SLRSSIKDMAAAAGRAALNAVNGIVNP]
MIC (Candida albicans): 384 µM (≈ 1020 µg/mL)
MIC [1]: 96.1 µM (≈ 256 µg/mL)
MIC (Klebsiella pneumoniae): > 189 µM
MIC [2]: > 192 µM
